Results reported in patent US20240285773A1, “METHODS OF TREATING MYELODYSPLASTIC SYNDROME AND MONITORING THE TREATMENT” (Geron Corporation, priority 2023, published 2024).
Values joined by “and” are separate entries in the source; they are usually repeats but may differ in a detail not shown here. Equal values may be shown once. [nps] = N3'→P5' thiophosphoramidate linkage; {Palm} = palmitoyl lipid

What was measured:
Assay type in all cases: in vivo, human
[1] = system: SF3B1; assay: Gene mutation analysis (NGS): SF3B1 VAF and clinical response
From the text: VAF for the target genes can be determined and/or measured using any convenient methods. In one such method, whole blood collected in an EDTA tube is used to perform Next Generation Sequencing (NGS), for example, using LeukoVantage®. NGS using any other sequencing platform can be used, for example, nanopore sequencing, paired-end sequencing, Ion Torrent sequencing, and single molecule real time (SMRT) sequencing. An MDS gene panel can be used. For example, a gene panel containing one or more of SF3B1, TET2, DNMT3A and ASXL1 can be used. In a specific embodiment, a gene panel that includes the following 36 genes was used: ASXL1, ATM, BCOR, CBL, CEBPA, CSF3R, CUX1, DNMT3A, ETNK1, ETV6, EZH2, FLT3, GATA2, IDH1, IDH2, IKZF1, JAK2, KRAS, NF1, NPM1, NRAS, PHF6, PTEN, PTPN11, RUNX1, SETBP1, SF3B1, SRSF2, STAG2, STAT3, STK11, TET2, TP53, U2AF1, WT1, ZRSR2. The NGS assay can be performed using DNA bait capture methodology on the NextSeq® (Illumina®) platform. Following DNA extraction from leukocytes, a targeted, amplicon-based NGS method is used to detect mutations. […] The percentage of mutation reads will be reported and can be used to assess the size of the clonal population. VAF is the percentage of sequence reads observed matching a specific DNA variant divided by the overall coverage at that locus. Because NGS provides a near random sample, VAF is thus a surrogate measure of the proportion of DNA molecules in the original specimen carrying the variant.
VAF changes were assessed from blood taken pre- and every 12 weeks post-treatment in patients with greater than or equal to 5% variant allele at baseline and >1 post-baseline assessment. T-tests evaluated group comparison, Fisher's exact test evaluated association, and linear regression evaluated correlation. […] The patients achieving ≥8-weeks, ≥24-weeks, and >1-year TI in the imetelstat group were enriched with patients who had ≥50% reductions in SF3B1 and TET2 VAF compared with placebo (FIG. 10).
Blood samples were collected at baseline and during study visits approximately every 12 weeks. Following DNA extraction from leukocytes, a targeted, amplicon-based next generation sequencing was performed at Quest Diagnostics using DNA bait capture methodology on the NextSeq® (Illumina®) platform and a LeukoVantage® MDS Gene Panel covering 36 MDS-relevant genes. The lower limit of sensitivity is 5% mutated alleles in a mixed population; the percentage of mutation reads is reported and used to assess the size of the clonal population.

[2] = system: patients with baseline cytogenetic abnormality; assay: Phase 3 trial: cytogenetic response per IWG 2006
From the text: (§1) The primary end point was rate of RBC-TI for 8 consecutive weeks or longer. Key secondary end points included rate of 24-week TI, duration of TI, and the rate of hematologic response (hematologic improvement-erythroid [HI-E], based on modified International Working Group [IWG] 2006 criteria, and HI-E per revised IWG 2018). Additional secondary end points included relative change in number of RBC transfusions received by patients, relative change in hemoglobin, and safety. The changes in mutational status and in patient-reported fatigue over time (assessed by the Functional Assessment of Chronic Illness Therapy [FACIT] Fatigue Scale) were exploratory end points. Subgroup analyses were performed including baseline presence or absence of RS, prior RBC transfusion burden (≥4 to ≤6 or >6 RBC units/8-weeks during a 16-week period prior to randomization), and low or intermediate-1 IPSS risk categories. Subgroup analyses were also performed, including baseline mutation status as well as telomerase activity (TA), telomere lengths (TL), and human telomerase reverse transcriptase (hTERT) levels. Peripheral blood hematology, bone marrow evaluation, mutation assessment, and cytogenetic evaluation were performed centrally and responses assessed by an independent review committee (IRC). Rate of 1-year RBC-TI was reported as a post hoc analysis.
As noted above, patients with heavily RBC-TD-ESA relapsed/refractory or ineligible non-del(5q) LR-MDS naive to lenalidomide and hypomethylating agents (len/HMA) received 2-hr infusion of imetelstat 7.5 mg/kg or placebo every 4 weeks. An independent review committee assessed abnormal cytogenetic profiles of bone marrow samples taken pre- and every 24 weeks post-treatment to assess cytogenetic response of complete or partial remission. Of the 178 randomized patients, 22.0% in the imetelstat group and 21.7% in the placebo group had baseline cytogenetic abnormalities and post-treatment samples.

[3] = system: RBC transfusion-dependent patients with IPSS low or intermediate-1 risk MDS; assay: Phase 3 trial: hematologic improvement-erythroid (HI-E) and hemoglobin
From the text: as §1
Key Secondary End Point Rate of hematologic improvement, including HI-E: per modified IWG 2006.
Changes over time in transfusion units and hemoglobin levels were compared by a mixed model for repeated measures with weeks since randomization, prior transfusion burden, minimum hemoglobin in the 8 weeks prior to first dose (for hemoglobin), and treatment arm as the independent variables with autoregressive moving average covariance structure.

[4] = system: TET2; assay: Gene mutation analysis (NGS): TET2 VAF and clinical response; conditions: imetelstat group
From the text: VAF for the target genes can be determined and/or measured using any convenient methods. In one such method, whole blood collected in an EDTA tube is used to perform Next Generation Sequencing (NGS), for example, using LeukoVantage®. NGS using any other sequencing platform can be used, for example, nanopore sequencing, paired-end sequencing, Ion Torrent sequencing, and single molecule real time (SMRT) sequencing. An MDS gene panel can be used. For example, a gene panel containing one or more of SF3B1, TET2, DNMT3A and ASXL1 can be used. […] The percentage of mutation reads will be reported and can be used to assess the size of the clonal population. VAF is the percentage of sequence reads observed matching a specific DNA variant divided by the overall coverage at that locus. […]
VAF changes were assessed from blood taken pre- and every 12 weeks post-treatment in patients with greater than or equal to 5% variant allele at baseline and >1 post-baseline assessment. T-tests evaluated group comparison, Fisher's exact test evaluated association, and linear regression evaluated correlation. […]
Blood samples were collected at baseline and during study visits approximately every 12 weeks. […] The lower limit of sensitivity is 5% mutated alleles in a mixed population; the percentage of mutation reads is reported and used to assess the size of the clonal population.

[5] = SF3B1 VAF ≥50% reduction No (N=55)
[6] = SF3B1 VAF ≥50% reduction Yes (N=23)
[7] = 26 patients with baseline abnormality
[8] = ≥1-year TI responders with baseline abnormality (7)

Substance: Imetelstat: first-in-class telomerase inhibitor; synthetic lipid-conjugated 13-mer oligonucleotide N3′→P5′-thiophosphoramidate (TAGGGTTAGACAA; all [nps], 5' {Palm}, sugars by position and methylation of C not given here)
- Maximal reduction in SF3B1 VAF ([1]; 18 ≥1-year TI responders with mutation data): −6% to −100%
- 1-Year RBC-TI Yes [1, 5]: 5.5%
- 8-Week RBC-TI Yes [1, 5]: 38.2%
- 24-Week RBC-TI Yes [1, 5]: 23.6%
- 1-Year RBC-TI Yes [1, 6]: 47.8%
- 8-Week RBC-TI Yes [1, 6]: 82.6%
- 24-Week RBC-TI Yes [1, 6]: 69.6%
- Pearson's r: maximum % reduction in SF3B1 VAF vs maximum change in hemoglobin ([1]; imetelstat group, n=67): −0.626
- Complete elimination of the SF3B1 VAF, patients ([1]; ≥1-year TI responders (of 18)): 7 patients
- ≥50% SF3B1 VAF reduction ([1]; ≥1-year TI responders (of 18)): 72.2%
- ≥50% SF3B1 VAF reduction, patients ([1]; ≥1-year TI responders (of 18)): 13 patients
- Cytogenetic CR or PR [2, 7]: (35) %
- Cytogenetic CR or PR, patients [2, 7]: 9 N
- Cytogenetic complete response (CR) [2, 7]: (19) %
- Cytogenetic complete response (CR), patients [2, 7]: 5 N
- Cytogenetic partial response (PR) [2, 7]: (15) %
- Cytogenetic partial response (PR), patients [2, 7]: 4 N
- Cytogenetic response not evaluable [2, 7]: (46) %
- Cytogenetic response not evaluable, patients [2, 7]: 12 N
- Does not meet cytogenetic CR or PR criteria [2, 7]: (19) %
- Does not meet cytogenetic CR or PR criteria, patients [2, 7]: 5 N
- Cytogenetic CR or PR ([2]; 26 patients with baseline abnormality, listed as imetelstat): 35% and 34.6%
- Cytogenetic CR or PR, % difference vs placebo ([2]; in vivo): 19% (−16, 44)
- Did not meet the response criteria, patients [2, 8]: 1 patient
- cCR [2, 8]: 57%
- cCR, patients [2, 8]: 4 patients
- cPR [2, 8]: 29%
- cPR, patients [2, 8]: 2 patients
- Median hemoglobin peak ([3]; 8-week TI responders): 11.3 g/dL
- Median hemoglobin increase from pretreatment to peak ([3]; 8-week TI responders, during TI period): 3.55 g/dL and 3.6 g/dL
- Major HI-E response, % difference vs placebo ([3]; HTB subjects): 30.9%
- Minor HI-E response, % difference vs placebo ([3]; HTB subjects): 34.8%
- Major HI-E response (16-week RBC-TI), patients ([3]; HTB subjects (97)): 30 No. of patients
- Minor HI-E response (50% RBC units reduction in 16 weeks), patients ([3]; HTB subjects (97)): 43 No. of patients
- HI-E response (16-week RBC-TI), % difference vs placebo ([3]; LTB subjects): 11.1%
- HI-E response (16-week RBC-TI), patients ([3]; LTB subjects (21)): 7 No. of patients
- HI-E per IWG 2006, patients ([3]; N=118): 75 n
- HI-E per IWG 2018, patients ([3]; N=118): 50 n
- Increase in hemoglobin ≥1.5 g/dL for ≥8 wk, patients ([3]; N=118): 40 n
- Transfusion reduction by 50%/16 weeks rate ([3]; N=118): 43.2%
- Transfusion reduction by 50%/16 weeks, patients ([3]; N=118): 51 n
- Transfusion reduction by ≥4 units/8 wk, patients ([3]; N=118): 71 n
- HI-E per IWG 2018 rate ([3]; N=118, listed as imetelstat): 42% and 42.4%
- Increase in hemoglobin ≥1.5 g/dL for ≥8 wk rate ([3]; N=118, listed as imetelstat): 34%
- HI-E IWG 2006, % difference vs placebo ([3]; in vivo): 11.9%,
- HI-E IWG 2018, % difference vs placebo ([3]; in vivo): 29.0%,
- Increase in hemoglobin ≥1.5 g/dL for ≥8 wk, % difference vs placebo ([3]; in vivo): 23.9%
- Transfusion reduction by ≥4 units/8 wk, % difference vs placebo ([3]; in vivo): 10.2%,
- Median increase in hemoglobin during the longest TI interval ([3]; ≥1-year TI responders): 5.2 g/dL and 5.18 g/dL
- Pearson's r: maximum % reduction in TET2 VAF vs maximum change in hemoglobin ([4]; n=32): −0.659
- Pearson's r: maximum % reduction in TET2 VAF vs duration of TI ([4]; n=38): −0.577
